One data set has as its system Silky windgrass (APSEV). As to the kind of experiment: post-emergence test, weed control. The format is in vivo. Particulars: post-emergent, 28 DAT, height 1-1.5 cm, rate g ai/ha by row: r25 94, r26 125, r27 188, r28 125, r29 250, r30 94+125, r31 125+125, r32 188+125, r33 94+250, r34 125+250, r35 188+250.
The next data set has as its system Common chickweed (STEME). Description: post-emergence test, weed control. Conditions: post-emergent, 28 DAT. Format: in vivo, Stellaria media. How it is done: (§1) Test compositions containing the test compounds were diluted with water to provide the appropriate test rate concentrations.
(§2) For post-emergence testing, seeds of each species for each rate of application of each herbicide solution were planted in 7.5 cm×7.5 cm plastic pots filled with potting soil. The seeds were germinated and the resulting plants were allowed to grow in a greenhouse until they reached a growth stage, such as height, suitable for testing. […] Pots of post-emergent treated plants were returned to the greenhouse and not watered for 24 hours after treatment. Thereafter they were regularly watered and fertilized for the duration of the test.
(§3) The control of weeds was evaluated in each experimental test at 21 for wheat and 28 days after treatment (DAT) for all species. […] The rating system is as follows in Table 1.

The test system of the next data set is Wild oat (AVEFA). Description: pre-emergence test, weed control. Format: in vivo, Avena fatua. Conditions: pre-emergent, 21 DAT, rate g ai/ha by row: r4 94, r5 125, r6 250, r7 125, r8 250, r9 500, r10 94+125, r11 125+125, r12 94+250, r13 125+250, r14 94+500, r15 125+500. How it is done: as §1
(§4) For pre-emergence testing, four disposable fiber flats (6 inch by 10 inch) for each rate of application of each herbicide solution were filled with top soil, to which seeds of each species were planted in furrows made by a template pressed on the top of the soil. The furrows were covered with soil after planting the seed and were watered well before application of the test compounds.
(§5) Fiber flats designated for treatment were placed in a spray chamber having a static platform and a movable sprayer and the height of the spray nozzle was 10.5 inches above the soil level. Once the sprayer was calibrated using water for spray volume of 30 gallons per acre, flats were sprayed with sprayer at a speed to receive a coverage equivalent of 30 gallons per acre. The application rates are those shown in the Tables below for the individual herbicidal solutions and the herbicide compositions of this invention. The pre-emergence flats were immediately placed in the greenhouse and watered lightly after treatment. Thereafter they were regularly watered and fertilized for the duration of the test.
(§6) The control of weeds was evaluated in each experimental test at 21 for wheat and 28 days after treatment (DAT) for all species. Data were analyzed using Minitab software at 95% confidence interval. The results, shown as an average of the replications, were compared with results observed in untreated control flats in the same tests. Percent control was determined by a method similar to the 0 to 100 rating system disclosed in “Research Methods in Weed Science,” 2nd ed., B. Truelove, Ed.; Southern Weed Science Society; Auburn University, Auburn, Ala., 1977. The rating system is as follows in Table 1.

The test system of the next data set is beggerticks (BIDPI). Description: post-emergence test, weed control. Particulars: post-emergent, 28 DAT, COC 1%, rate g ai/ha by row: r5 94, r6 125, r7 250, r8 1.25, r9 2.5, r10 5, r11 94+1.25, r13 125+1.25, r15 94+2.5, r17 125+2.5, r19 94+5, r21 125+5. Format: in vivo, Bidens pilosa. How it is done:
as §1, §2, §3

The test system of another data set is Canola (CN). As to the kind of experiment: post-emergence test, crop injury. The format is in vivo. Conditions: post-emergent, 28 DAT (Table 12 test). The method, then: as §1
(§7) For post-emergence testing, seeds of each species for each rate of application of each herbicide solution were planted in 7.5 cm×7.5 cm plastic pots filled with potting soil. The seeds were germinated and the resulting plants were allowed to grow in a greenhouse until they reached a growth stage, such as height, suitable for testing. Treatments were applied using compressed air in a track spray chamber at 30 gallons/acre (280 L/ha) using a TeeJet 8001E nozzle at 40 psi (2.76 bars). Pots of post-emergent treated plants were returned to the greenhouse and not watered for 24 hours after treatment. Thereafter they were regularly watered and fertilized for the duration of the test.
The control of weeds was evaluated in each experimental test at 21 for wheat and 28 days after treatment (DAT) for all species. Data were analyzed using Minitab software at 95% confidence interval. The results, shown as an average of the replications, were compared with results observed in untreated control flats in the same tests. Percent control was determined by a method similar to the 0 to 100 rating system disclosed in “Research Methods in Weed Science,” 2nd ed., B. Truelove, Ed.; Southern Weed Science Society; Auburn University, Auburn, Ala., 1977. […]

The next data set has as its system Velvetleaf (ABUTH). Description: pre-emergence test, weed control. Format: in vivo, Abutilon theophrasti. Conditions: pre-emergent, 21 DAT, rate g ai/ha by row: r4 94, r5 125, r6 250, r7 125, r8 250, r9 500, r10 94+125, r11 125+125, r12 94+250, r13 125+250, r14 94+500, r15 125+500. How it is done: as §1, §4, §5, §6
The subject of a further data set is Italian ryegrass (LOLMU). Description: post-emergence test, weed control. Format: in vivo, Lolium perenne. multiflorum. Particulars: post-emergent, 28 DAT; for percentage of weed control, LOLMU: height 5-6 cm, rate g ai/ha by row: r25 94, r26 125, r27 188, r28 125, r29 250, r30 94+125, r31 125+125, r32 188+125, r33 94+250, r34 125+250, r35 188+250; for control of Italian rygrass (LOLMU): combination of both. How it is done: as §1, §7, §6

The subject of the next data set is Barnyardgrass (ECHCG). Description: post-emergence test, weed control. Format: in vivo, Echinochloa crus-galli. Particulars: post-emergent, 28 DAT; for control of barnyardgrass (ECHCG): BFL at 125 g/ha, DCI at 125 g/ha, combination of both; for percentage of weed control, ECHCG: height 8-9 cm, rate g ai/ha by row: r7 94, r8 125, r9 188, r10 125, r11 250, r12 94+125, r13 125+125, r14 188+125, r15 94+250, r16 125+250, r17 188+250. The method, then: as §1, §2, §3

Data set [1] relates to Common lambsquarters (CHEAL). As to the kind of experiment: pre-emergence test, weed control. Format: in vivo, Chenopodium album. Particulars: pre-emergent, 28 DAT; for control of lambsquarters (CHEAL): BFL at 125 g/ha, DCI at 125 g/ha, combination of both. The procedure, abridged: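 Visual 0–100 ratings of percent control against untreated flats, averaged across four replicate flats, were taken at 28 days after treatment for all species (21 days for wheat). Treatments went onto freshly seeded, watered soil before emergence at a spray volume of 30 gallons per acre.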

The test system of data set [2] is Marestail (horsetail) (ERICA). Description: post-emergence test, weed control. Format: in vivo. Particulars: post-emergent, 28 DAT, height 1 cm (3-5 rosette); rate g ai/ha by row: r25 94, r26 125, r27 188, r28 125, r29 250, r30 94+125, r31 125+125, r32 188+125, r33 94+250, r34 125+250, r35 188+250.
Data set [3] concerns Chinese sprangletop (LEFCH). Description: post-emergence test, weed control. The format is in vivo. Conditions: post-emergent, 28 DAT, height ≤0.5 cm, rate g ai/ha by row: r7 94, r8 125, r9 188, r10 125, r11 250, r12 94+125, r13 125+125, r14 188+125, r15 94+250, r16 125+250, r17 188+250.
Where [4] appears, read: COC 1%, rate g ai/ha by row: r5 94, r6 125, r7 250, r8 1.25, r9 2.5, r10 5, r11 94+1.25, r13 125+1.25, r15 94+2.5, r17 125+2.5, r19 94+5, r21 125+5.
Setting [5] is: BFL at 188 g/ha, DCI at 125 g/ha.
Where [6] appears, read: DCI at 250 g/ha, BFL at 125 g/ha.

For `CCC(Oc1ccc(F)c(C(F)(F)F)c1)C(=O)NCc1ccccc1` (racemic) [BFL, 2-[4-fluoro-3-(trifluoromethyl)phenoxy]-N-(phenylmethyl)butanamide], the “percentage of weed control, APSEV” value is reported as 0% in the data set with Silky windgrass (APSEV) (94 g ai/ha) and 5% with Silky windgrass (APSEV) (188 g ai/ha). Also, in the data set with Common chickweed (STEME) (setting [4]), the “percentage of weed control, Common chickweed STEME” value is 5%. Further, in the data set on Common chickweed (STEME) (BFL at 187.5 g, PYX at 45 g, combination of both), the “control of common chickweed” value is recorded as 16%. Moreover, the “percentage of weed control, Wild Oat AVEFA” value in the data set on Wild oat (AVEFA) (94 g ai/ha) is given as 10%; with Wild oat (AVEFA) (125 g ai/ha) it was 9%. In addition, the figures for the “percentage of weed control, Beggerticks BIDPI” value in the data set with beggerticks (BIDPI) (BFL at 94 g ai/ha) and in the data set on beggerticks (BIDPI) (BFL at 125 g ai/ha) were 5% and 10%, respectively. For the same compound, the “crop injury on canola” value with Canola (CN) was “significant crop injury”. The “percentage of weed control, Velvetleaf ABUTH” value in the data set on Velvetleaf (ABUTH) (94 g ai/ha) worked out at 10%; in the data set on Velvetleaf (ABUTH) (125 g ai/ha), 15%; in the data set on Velvetleaf (ABUTH) (250 g ai/ha), 14%. In addition, in the data set with Italian ryegrass (LOLMU), the “percentage of weed control, LOLMU” value is reported as 0%. Moreover, the “control of Italian rygrass (LOLMU)” value with Italian ryegrass (LOLMU) (setting [5]) and with Italian ryegrass (LOLMU) (setting [6]) was 0% throughout. The “percentage of weed control, Barnyardgrass ECHCG” value with Barnyardgrass (ECHCG) (setting [4]) is 5%. Besides, the “control of barnyardgrass (ECHCG)” value in the data set on Barnyardgrass (ECHCG) turned out to be 6%. In data set [1], the “control of lambsquarters (CHEAL)” value amounted to 42%. The “percentage of weed control, CHEAL” value in data set [1] (rate g ai/ha by row: r4 94, r5 50, r6 100, r7 52.5, r8 70, r9 94+52.5, r10 94+70, r11 50+52.5, r12 50+70, r13 100+52.5, r14 100+70) came to 16%.

As to `CC1(C)CON(Cc2ccc(Cl)cc2Cl)C1=O` [DCI, 2-(2,4-dichlorophenyl)methyl-4,4-dimethyl-3-isoxazolidinone], the results for the “percentage of weed control, APSEV” value in the data set with Silky windgrass (APSEV) (125 g ai/ha) and in the data set on Silky windgrass (APSEV) (250 g ai/ha) were 5% and 0%, respectively. Besides, in data set [2], the “percentage of weed control, ERICA” value worked out at 0%. Moreover, the “percentage of weed control, LEFCH” value in data set [3] (125 g ai/ha) was determined as 89%; in data set [3] (250 g ai/ha) it was 79%. Also, the figures for the “percentage of weed control, LOLMU” value in the data set on Italian ryegrass (LOLMU) (125 g ai/ha) and with Italian ryegrass (LOLMU) (250 g ai/ha) were 0% and 9%, respectively. For the same compound, the entries for the “control of Italian rygrass (LOLMU)” value with Italian ryegrass (LOLMU) (setting [5]) and in the data set with Italian ryegrass (LOLMU) (setting [6]) were 0% and 9%, respectively. Also, the “percentage of weed control, ECHCG” value stood at 74% in the data set on Barnyardgrass (ECHCG) (125 g ai/ha) and 69% in the data set with Barnyardgrass (ECHCG) (250 g ai/ha). Also, the “control of barnyardgrass (ECHCG)” value in the data set on Barnyardgrass (ECHCG) came out at 74%. Further, the “control of lambsquarters (CHEAL)” value in [1] is recorded as 24%.

The values above are taken from patent US11412737B2, “Mixtures of beflubutamid or optically enriched forms thereof with a second herbicide” (FMC Corporation, priority 2016, dated 2022).
